According to patent US20070129336A1, “Camphanylidene and phenylalkyl inositol polyphosphate compounds, compositions, and methods of their use” (Inologic, Inc., priority 2003, published 2007):

Tests used:
CFHNE cell monolayers = assay: Cystic fibrosis human nasal epithelial cell Ussing chamber assay; type: cell-based; conditions: 2 hour pretreatment, measured 22 hours later
Text: CF Human Nasal Epithelial (CFHNE) Cell Isolation and Proliferation: Surgically removed nasal polyps were obtained from volunteers in collaboration with Dr. Bonnie Ramsey at Children's Hospital, Seattle and Dr. Ludwig Allegra at the Northwest Nasal Sinus Center, and transported on ice in a sterile container containing a 1:1 mixture of Dulbecco's modification of minimum essential medium Eagle and Ham's F-12 nutrient medium (DMEM/F-12)(Irvine Scientific, Santa Ana, Calif.) supplemented with 100 U/ml penicillin, 0.1 mg/ml streptomycin, 10 mM HEPES, and 2 mM L-glutamine. The tissue samples were aseptically removed from the transport medium and washed (repeated 5X) by suspending in 40 ml of Joklik's modification of minimum essential medium Eagle (JMEM) at 4° C., and centrifuging at 500 RPM. The supernatant was aspirated and discarded. The tissue was then transferred to JMEM containing 200 U/ml penicillin, 0.2 mg/ml streptomycin, 0.1 mg/ml gentamicin sulfate (Clonetics, San Diego, Calif.), and 0.1 μg/ml amphotericin-B (Clonetics), and 0.1% Protease (Sigma), washed an additional 2×, suspended in 15 ml in a 10 cm tissue culture dish, and incubated at 4° C. for 24 hours. The tissue samples were then gently triturated, the connective tissue aseptically removed, and the remaining cell suspension centrifuged at 1000 RPM for 5 min. […] The cells were then counted using a hemocytometer. […]

iNOS = assay: Survey of iNOS inhibition, 2 hr LPS pre-stimulation (nitrite by Greiss reagent); type: cell-based, murine; conditions: RAW 264.7 cells, LPS/ATP stimulation for two hours, then compound added
Method: We chose the well characterized LPS stimulation of the murine macrophage cell line RAW 264.7, that produces substantial quantities of NO, to screen inositol polyphosphate compounds in vitro (FIGS. 8-12 and Table 1). This assay system offers a number of opportunities to characterize drug action as pre-transcriptional, post transcriptional, translational or post translational.
Nitrite (NO2^−) accumulation in cell-free supernatant, used as an indicator of NO production, was measured using the modified Greiss reagent (Sigma G4410, St Louis, Mo.). This method was applied as described elsewhere (Martinez, J. et al., “Regulation of prostaglandin E2 production by the superoxide radical and nitric oxide in mouse peritoneal macrophages,” Free Radical Res 32:303-311 (2000)). Briefly, RAW264.7 cells (ATCC, #TIB-71) were maintained in standard tissue culture flasks and with DMEM+10% heat inactivated fetal bovine serum(HI-FBS) (Fetal-bovine serum, Heat-inactivated, Sercare Life Sciences, Oceanside, Calif.). Experiments were initiated by seeding logarithmic cells at […] per well in a 96-well plate in phenol-red free RPMI 1640 (Sigma #R8755)+10% HI-FBS at least four hours before the initiation of the experiment. Cells were exposed to treatment compounds for a minimum of 30 minutes in RPMI-1640 supplemented with 10% fetal calf serum. The compound treatment was removed and inflammatory compounds dissolved in RPMI-1640 supplemented with 10% FBS were applied to the cells. Stimulated cells and appropriate controls were incubated for 18-24 hours before sampling 50 μl of the cell-free supernatant from each well. This sample of supernatant was combined with 25 μl of a nitrate reductase cocktail (0.1 units/ml nitrate reductase enzyme, 5 μM FAD, 30 μM NADPH) and incubated for 30 minutes[…]. To this mixture, 25 μl of LDH cocktail (100 units/ml rabbit muscle lactate dehydrogenase in 0.3 mM sodium pyruvate) was added and the total mixture was incubated another 5-10 min at […]. Greiss reagent was added in 100 μl amounts to each 100 μl experimental sample. Color development proceeded for a minimum of 10 minutes while protected from light. Nitrite levels were compared to a sodium nitrite standard curve freshly prepared in the same medium used for the growth and incubation of the cells and treated with the same enzyme treatments. Color development was recorded by using a Packard Spectracount Plate reader at 540 nm wave length.
It is important to identify the conditions under which the compounds exert their greatest desired effect with the minimal adverse effects. Understanding this relationship is important as signaling molecule mimetics may require special conditions of concentration and duration to generate the desired therapeutic effect. To ascertain whether effects could be observed post-exposure to stimulus, cells were exposed to the LPS/ATP stimulation for two hours at […] after which compound was added.

human CF nasal epithelia = assay: Blue Dextran volume transport assay; type: cell-based; conditions: CF nasal epithelia monolayers, apical application, 18 hours
Text: In normal human airway epithelia, Na+ and Cl− currents (CFTR and Ca2+-activated Cl− currents) contribute to airway surface liquid (ASL) fluid volume regulation depending on signaling equilibria. In contrast, in human CF airway epithelia, Na+ currents through ENaC dominate basal ASL volume regulation accompanied by a relatively minor contribution through Ca2+-activated Cl− currents. The combination of enhanced ENaC currents and transient Ca2+-activated Cl− currents in CF result in an inadequate hydration of the ASL and reduction of mucociliary clearance. […] The resulting reduction in the ability of these monolayers to concentrate BD was taken as a functional indicator of the test compound's involvement in the inhibition of ENaC.
All procedures were performed aseptically. The Blue Dextran (BD) stock solution was prepared with HEPES modified Ringer's buffer (HMRB) (2 mg BD/ml buffer). The compounds tested were solubilized in HMRB containing ˜1 μM BD. Final concentration of vehicle is 0.1% unless otherwise indicated (1:1, DMSO+DMSO containing 5% (w/v) pluronic-F127). The composition of HMRB (pH 7.3, 6.7 when equilibrated with 95%air/5%CO2) is as follows (in mM): 135 NaCl, 1.2 CaCl2, 1.2 MgCl2, 2.4 K2HPO4, 0.6 KH2PO4, 10 HEPES, 10 glucose (˜285 mOsm.). 200 μl of the BD solution was applied to the apical surface and placed in a highly humidified incubator (Forma model 3956 set on “high” humidity) for 18 hours. Basolateral buffer consisted of BEGM (˜300 mOsm.). After 18 hours, 60 μl of the remaining apical buffer was sampled and transferred to a 0.7 ml micro-centrifuge tube for storage until analysis. A standard concentration curve was obtained by determining the optical densities, at 660 nm, of a serial dilution of 10 μM Blue Dextran in HMRB in a 96-well plate using a Packard Spectracount. The [BD] of the samples, which were read on the same plate, was determined by extrapolation from the BD standard curve using Packard I-Smart software. The increase in [BD] from the starting value of 1 μM was taken to be an indication of the magnitude of volume absorption occurring across the monolayer. The rate of absorption was calculated by dividing the change in volume by the duration of the experiment. This value was normalized to a surface area of 1 cm^2, to give μl·cm2 −1·hr −1. All experiments, unless otherwise indicated, were conducted over a period of 18 hours.

SMILES	effect on basal Isc (CFHNE cell monolayers)	IC50 (iNOS; experiment 1 of three) [µM]	IC50 (iNOS; experiment 2 of three) [µM]	IC50 (iNOS; experiment 3 of three) [µM]	inhibition of fluid absorption (human CF nasal epithelia)
CCCC(=O)OC1C(OCCCc2ccccc2)C(OP(=O)(OCOC(=O)CC)OCOC(=O)CC)C(OP(=O)(OCOC(=O)CC)OCOC(=O)CC)C(OP(=O)(OCOC(=O)CC)OCOC(=O)CC)C1OP(=O)(OCOC(=O)CC)OCOC(=O)CC (centres unmarked) [INO-4997, 2-O-butyryl-1-O-(3-phenylpropyl)-myo-inositol 3,4,5,6-tetrakisphosphate octakis (propionoxymethyl) ester]	prolonged effect	12.5	12.5	9	dose dependent inhibition of fluid absorption
CCC(=O)OCOP(=O)(OCOC(=O)CC)OC1C2OC3(CC4CCC3(C)C4(C)C)OC2C(OP(=O)(OCOC(=O)CC)OCOC(=O)CC)C(OP(=O)(OCOC(=O)CC)OCOC(=O)CC)C1OP(=O)(OCOC(=O)CC)OCOC(=O)CC (centres unmarked) [INO-4996, 1,2-camphanylidene-myo-inositol 3,4,5,6-tetrakisphosphate octakis (propionoxymethyl) ester]		6.25	3.13	6.25	dose dependent inhibition of fluid absorption
CCC(=O)OCOP(=O)(OCOC(=O)CC)OC1C2OC3(CC4CCC3(C)C4(C)C)OC2C(OP(=O)(OCOC(=O)CC)OCOC(=O)CC)C(OP(=O)(OCOC(=O)CC)OCOC(=O)CC)C1OP(=O)(OCOC(=O)CC)OCOC(=O)CC (centres unmarked) [INO-4984, 2,3-camphanylidene-myo-inositol 1,4,5,6-tetrakisphosphate octakis (propionoxymethyl) ester]		18	3.13	12.5	dose dependent inhibition of fluid absorption
N=C(N)NC(=O)c1nc(Cl)c(N)nc1N [amiloride, reference compound]					inhibited fluid absorption measured by the Blue Dextran assay in a dose dependent fashion
